We go through 25 compounds from patent US20140221340A1 (KYOWA HAKKO KIRIN CO., LTD., priority 2011, published 2014).

Structures are written as SMILES.

In the experiment the target is T1, human CCR10 (Homo sapiens, UniProt P46092).
T1 construct: expressed in transfected cells; host or cells: KJMGER8 cell (cell line derived from Namalwa cell); expression induced with 10 nmol/L β-estradiol
T1 sequence (P46092 1-362): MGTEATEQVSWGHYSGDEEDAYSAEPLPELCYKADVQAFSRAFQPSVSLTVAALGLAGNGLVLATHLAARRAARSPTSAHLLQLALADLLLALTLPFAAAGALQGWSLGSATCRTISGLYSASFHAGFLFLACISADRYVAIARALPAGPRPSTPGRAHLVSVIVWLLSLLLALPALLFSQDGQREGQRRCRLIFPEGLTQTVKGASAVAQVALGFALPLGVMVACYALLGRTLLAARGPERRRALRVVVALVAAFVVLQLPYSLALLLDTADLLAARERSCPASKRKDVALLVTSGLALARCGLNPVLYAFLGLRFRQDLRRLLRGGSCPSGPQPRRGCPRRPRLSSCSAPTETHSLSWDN
The experiment in a line: Calcium assay of human CCR10 (inhibition of CTACK-induced increase in intracellular calcium ion concentration in hCCR10G16 cells). It counts as cell-based. To be noted: test compound 100 nmol/L; human recombinant CTACK; hCCR10G16 cells (KJMGER8/Namalwa-derived, Gα16 co-expressed); FLIPR or FDSS; read-out: Inhibitory rate (%) for an increase in calcium ion concentration. The method in brief:
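KJMGER8-derived hCCR10G16 cells (human CCR10 plus Gα16, expression induced 24 h with 10 nmol/L β-estradiol) were dye-loaded and preincubated with compound for 30 min at 37 °C, then stimulated with CTACK (300 nmol/L stock). Calcium flux over ~5 min (max−min fluorescence) gave percent inhibition versus DMSO control.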
For orientation: A change in cytosolic calcium serves as a functional read-out for many receptors and channels.

Take `Cc1cc(Nc2c(C(=O)N3CCC(c4ccc(F)cc4)CC3)cnc3c(S(=O)(=O)NC(=O)C4CC4)cnn23)c(Cl)cc1F` [a-41, N-{7-(2-Chloro-4-fluoro-5-methylphenylamino)-6-[4-(4-fluorophenyl)piperidine-1-carbonyl]pyrazolo[1,5-a]pyrimidin-3-ylsulfonyl}cyclopropanecarboxamide]: the inhibition at 0.1 µM is greater than 100%.

Consider `Cc1ccc(Cl)c(Nc2c(C(=O)N3CCC(c4ccc(F)cc4)CC3)cnc3c(S(=O)(=O)NC(=O)C4CC4)cnn23)c1` [a-12, N-{7-(2-Chloro-5-methylphenylamino)-6-[4-(4-fluorophenyl)piperidine-1-carbonyl]pyrazolo[1,5-a]pyrimidin-3-ylsulfonyl}cyclopropanecarboxamide], for which the inhibition at 0.1 µM was greater than 100%.

For the compound `Cc1ccc(Cl)c(Nc2c(C(=O)N3CCC(c4ccc(F)cc4)CC3)cnc3c(S(=O)(=O)NC(N)=O)cnn23)c1` [a-77, N-Carbamoyl-7-(2-chloro-5-methylphenylamino)-6-[4-(4-fluorophenyl)piperidine-1-carbonyl]pyrazolo[1,5-a]pyrimidine-3-sulfonamide], the inhibition at 0.1 µM is greater than 100%.

As to `CCC(=O)NS(=O)(=O)c1cnn2c(Nc3cc(C)ccc3Cl)c(C(=O)N3CCC(c4ccc(F)cc4)CC3)cnc12` [a-13, N-{7-(2-Chloro-5-methylphenylamino)-6-[4-(4-fluorophenyl)piperidine-1-carbonyl]pyrazolo[1,5-a]pyrimidin-3-ylsulfonyl}ethanecarboxamide], the inhibition at 0.1 µM is greater than 100%.

On to `Cc1ccc(Cl)c(Nc2c(C(=O)N3CCC4(CC3)OCc3ccccc34)cnc3c(S(=O)(=O)NC(=O)NCC(F)(F)F)cnn23)c1` [a-82, 7-(2-Chloro-5-methylphenylamino)-6-[3H-spiro(isobenzofuran-1,4′-piperidine)-1′-carbonyl]-N-(2,2,2-trifluoroethylcarbamoyl)pyrazolo[1,5-a]pyrimidine-3-sulfonamide], for which the inhibition at 0.1 µM is 75.3%.

For the compound `CCN(CC)S(=O)(=O)c1cnn2c(Nc3ccc(F)cc3C)c(C(=O)N3CCC(c4ccccc4)CC3)cnc12` [a-62, N,N-Diethyl-7-(4-fluoro-2-methylphenylamino)-6-(4-phenylpiperidine-1-carbonyl)pyrazolo[1,5-a]pyrimidine-3-sulfonamide], the inhibition at 0.1 µM is greater than 100%.

For `CCNC(=O)NS(=O)(=O)c1cnn2c(Nc3cc(Cl)ccc3Cl)c(C(=O)N3CCC(c4ccc(F)cc4)CC3)cnc12` [a-23, 7-(2,5-Dichlorophenylamino)-N-(ethylcarbamoyl)-6-[4-(4-fluorophenyl)piperidine-1-carbonyl]pyrazolo[1,5-a]pyrimidine-3-sulfonamide], the inhibition at 0.1 µM was 96.7%.

Regarding `CCNC(=O)NS(=O)(=O)c1cnn2c(Nc3cc(C)ccc3Cl)c(C(=O)N3CCC(c4ccc(F)cc4)CC3)cnc12` [a-14, 7-(2-Chloro-5-methylphenylamino)-N-(ethylcarbamoyl)-6-[4-(4-fluorophenyl)piperidine-1-carbonyl]pyrazolo[1,5-a]pyrimidine-3-sulfonamide], the inhibition at 0.1 µM was greater than 100%.

Take `Cc1cc(F)ccc1Nc1c(C(=O)N2CCC(c3ccccc3)CC2)cnc2c(S(=O)(=O)NC(=O)C3CC3)cnn12` [a-1, N-[7-(4-Fluoro-2-methylphenylamino)-6-(4-phenylpiperidine-1-carbonyl)pyrazolo[1,5-a]pyrimidin-3-ylsulfonyl]cyclopropanecarboxamide]: the inhibition at 0.1 µM stood at 93.4%.

On to `CC(=O)NS(=O)(=O)c1cnn2c(Nc3ccc(F)cc3C)c(C(=O)N3CCC(c4ccccc4)CC3)cnc12` [a-17, N-[7-(4-Fluoro-2-methylphenylamino)-6-(4-phenylpiperidine-1-carbonyl)pyrazolo[1,5-a]pyrimidin-3-ylsulfonyl]acetamide], for which the inhibition at 0.1 µM was greater than 100%.

On to `CCNC(=O)NS(=O)(=O)c1cnn2c(Nc3cc(C)ccc3Cl)c(C(=O)N3CCC4(CC3)OCc3ccccc34)cnc12` [a-44, 7-(2-Chloro-5-methylphenylamino)-N-(ethylcarbamoyl)-6-[3H-spiro(isobenzofuran-1,4′-piperidine)-1′-carbonyl]pyrazolo[1,5-a]pyrimidine-3-sulfonamide], for which the inhibition at 0.1 µM amounted to 95.2%.

Take `CC(=O)NS(=O)(=O)c1cnn2c(Nc3cc(Cl)ccc3F)c(C(=O)N3CCC(c4ccc(F)cc4)CC3)cnc12` [a-33, N-{7-(5-Chloro-2-fluorophenylamino)-6-[4-(4-fluorophenyl)piperidine-1-carbonyl]pyrazolo[1,5-a]pyrimidin-3-ylsulfonyl}acetamide]: the inhibition at 0.1 µM was greater than 100%.

As to `COCC(=O)NS(=O)(=O)c1cnn2c(Nc3ccc(F)cc3C)c(C(=O)N3CCC(c4ccccc4)CC3)cnc12` [a-64, N-[7-(4-Fluoro-2-methylphenylamino)-6-(4-phenylpiperidine-1-carbonyl)pyrazolo[1,5-a]pyrimidin-3-ylsulfonyl]-2-methoxyacetamide], the inhibition at 0.1 µM was 94.2%.

Turning to `CCC(=O)NS(=O)(=O)c1cnn2c(Nc3cc(C)ccc3Cl)c(C(=O)N3CC4(C3)CN(c3ccc(F)cc3)C4)cnc12` [a-60, N-{7-(2-Chloro-5-methylphenylamino)-6-[6-(4-fluorophenyl)-2,6-diazaspiro[3,3]heptane-2-carbonyl]pyrazolo[1,5-a]pyrimidin-3-ylsulfonyl}propionamide], the inhibition at 0.1 µM was found to be 90.2%.

As for `CCNC(=O)NS(=O)(=O)c1cnn2c(Nc3cc(C)c(F)cc3Cl)c(C(=O)N3CCC(c4ccc(F)cc4)CC3)cnc12` [a-42, 7-(2-Chloro-4-fluoro-5-methylphenylamino)-N-(ethylcarbamoyl)-6-[4-(4-fluorophenyl)piperidine-1-carbonyl]pyrazolo[1,5-a]pyrimidine-3-sulfonamide], the inhibition at 0.1 µM is greater than 100%.

Take `CCNC(=O)NS(=O)(=O)c1cnn2c(Nc3ccc(Cl)cc3Cl)c(C(=O)N3CCC(c4ccc(F)cc4)CC3)cnc12` [a-20, 7-(2,4-Dichlorophenylamino)-N-(ethylcarbamoyl)-6-[4-(4-fluorophenyl)piperidine-1-carbonyl]pyrazolo[1,5-a]pyrimidine-3-sulfonamide]: the inhibition at 0.1 µM came out at 90.7%.

`CCNS(=O)(=O)c1cnn2c(Nc3cc(C)ccc3Cl)c(C(=O)N3CCC(c4ccc(F)cc4)CC3)cnc12` [a-15, N-Ethyl-7-(2-chloro-5-methylphenylamino)-6-[4-(4-fluorophenyl)piperidine-1-carbonyl]pyrazolo[1,5-a]pyrimidine-3-sulfonamide]: the inhibition at 0.1 µM worked out at 87.8%.

`CCNS(=O)(=O)c1cnn2c(Nc3cc(C)ccc3Cl)c(C(=O)N3CCC4(CC3)OCc3ccccc34)cnc12` [a-45, N-Ethyl-7-(2-chloro-5-methylphenylamino)-6-[3H-spiro(isobenzofuran-1,4′-piperidine)-1′-carbonyl]pyrazolo[1,5-a]pyrimidine-3-sulfonamide]: the inhibition at 0.1 µM was 80.3%.

On to `CC(=O)NS(=O)(=O)c1cnn2c(Nc3cc(Cl)ccc3Cl)c(C(=O)N3CCC(c4ccc(F)cc4)CC3)cnc12` [a-24, N-{7-(2,5-Dichlorophenylamino)-6-[4-(4-fluorophenyl)piperidine-1-carbonyl]pyrazolo[1,5-a]pyrimidin-3-ylsulfonyl}acetamide], for which the inhibition at 0.1 µM was greater than 100%.

With `CCC(=O)NS(=O)(=O)c1cnn2c(Nc3cc(C)c(F)cc3Cl)c(C(=O)N3CCC(c4ccc(F)cc4)CC3)cnc12` [a-40, N-{7-(2-Chloro-4-fluoro-5-methylphenylamino)-6-[4-(4-fluorophenyl)piperidine-1-carbonyl]pyrazolo[1,5-a]pyrimidin-3-ylsulfonyl}propionamide], the inhibition at 0.1 µM was greater than 100%.

Turning to `CCNS(=O)(=O)c1cnn2c(Nc3ccc(F)cc3C)c(C(=O)N3CCC(c4ccccc4)CC3)cnc12` [a-2, N-Ethyl-7-(4-fluoro-2-methylphenylamino)-6-(4-phenylpiperidine-1-carbonyl)pyrazolo[1,5-a]pyrimidine-3-sulfonamide], the inhibition at 0.1 µM is greater than 100%.

On to `CCNC(=O)NS(=O)(=O)c1cnn2c(Nc3cc(F)ccc3Cl)c(C(=O)N3CCC(c4ccc(F)cc4)CC3)cnc12` [a-30, 7-(2-Chloro-5-fluorophenylamino)-N-(ethylcarbamoyl)-6-[4-(4-fluorophenyl)piperidine-1-carbonyl]pyrazolo[1,5-a]pyrimidine-3-sulfonamide], for which the inhibition at 0.1 µM was greater than 100%.

On to `Cc1cc(F)ccc1Nc1c(C(=O)N2CCC(c3ccc(F)cc3)CC2)cnc2c(S(=O)(=O)NC3CC3)cnn12` [a-5, N-Cyclopropyl-7-(4-fluoro-2-methylphenylamino)-6-[4-(4-fluorophenyl)piperidine-1-carbonyl]pyrazolo[1,5-a]pyrimidine-3-sulfonamide], for which the inhibition at 0.1 µM is greater than 100%.

As for `CCC(=O)NS(=O)(=O)c1cnn2c(Nc3ccc(C)cc3Cl)c(C(=O)N3CCC(c4ccc(F)cc4)CC3)cnc12` [a-18, N-{7-(2-Chloro-4-methylphenylamino)-6-[4-(4-fluorophenyl)piperidine-1-carbonyl]pyrazolo[1,5-a]pyrimidin-3-ylsulfonyl}propionamide], the inhibition at 0.1 µM stood at 98.3%.

Take `O=C(NS(=O)(=O)c1cnn2c(Nc3cc(Cl)ccc3Cl)c(C(=O)N3CCC4(CC3)OCc3ccccc34)cnc12)C1CC1` [a-54, N-{7-(2,5-Dichlorophenylamino)-6-[3H-spiro(isobenzofuran-1,4′-piperidine)-1′-carbonyl]pyrazolo[1,5-a]pyrimidin-3-ylsulfonyl}cyclopropanecarboxamide]: the inhibition at 0.1 µM is greater than 100%.
